From patent publication US20260209288A1, “PEPTIDES FOR REGULATING GLUCOSE” (Cooke Aquaculture Inc., priority 2019, published 2026)

Key:
[1] = test system: L6 skeletal muscle cells; test: Glucose uptake experiments in L6 skeletal muscle cells (2-deoxy-[3H]glucose); format: cell-based
Procedure: Glucose uptake experiments were conducted as described by Roblet 2013. L6 skeletal muscle cells were grown in an a-minimum essential medium (a-MEM) containing 2% (v/v) fetal bovine serum (GBS) in an atmosphere of 5% CO2 at 37° C. [Tremblay 2001]. Cells were plated at 600,000 cells/plate in 24-well plates to obtain about 25,000 cells/mL. The cells were incubated 7 days, to reach their complete differentiation to myotubes (7 days post-plating). L6 myotubes were deprived of GBS for 3 h, with a a-MEM containing 0% of GBS. Then, the cells were incubated for 75 minutes, with 10 μl of EDUF fractions at a concentration of 1 μg/mL and 1 ng/ml. Finally, insulin was added (10 μl at 1.10-5M) for 45 min. Experiments were repeated 9 times, and each repetition was run in triplicate. After experimental treatments, cells were rinsed once with 37° C. HEPES-buffered solution (20 mM HEPES, pH 7.4, 140 mM NaCl, 5 mM KCl, 2.5 mM MgSO4, and 1 mM CaCl2)) and were subsequently incubated in HEPES-buffered solution containing 10 µM 2-deoxyglucose and 0.3 μCi/mL 2-deoxy-[3H] glucose for 8 minutes. Then, the cells were rinsed three times with 0.9% NaCl solution at 4° C. and then frozen. The next day, the cells were disrupted by adding 500 μl of a 50 mM NaOH solution. The radioactivity was determined by scintillation.

[2] = test system: FAO rat hepatocytes; test: Hepatic glucose production experiments in FAO cells; format: cell-based
Procedure: Hepatic glucose production experiments were conducted as described by Chevrier et al, (2015). Briefly, FAO rat hepatocytes were grown and maintained in monolayer culture in Roswell Park Memorial Institute medium (RPMI) containing 10% FBS in an atmosphere of 5% CO2 at 37° C. Cells were plated at 4.10^6 cells/plate. […] […] Glucose production was measured in the medium by using the Amplex Red Glucose/Glucose Oxidase Assay kit (Invitrogen). Results shown are the mean response of at least 6 independent experiments realized in triplicate.

Substance | glucose uptake, dose-response effect ([1]; IPVE at 1 ng/ml) | glucose uptake, dose-response effect ([1]; IPVE at 10 ng/ml) | Bioactivity ([1]; Table 1, identified peptides, glucose uptake) | nature of the glucose uptake response ([1]; concentrations from 1 μg/mL to 10 μg/mL as printed) | glucose uptake, dose-response effect ([1]; highest concentrations tested (>10 ng/ml)) | enhancement of the glucose uptake ([1]; in the presence of insulin, compared to the insulin control (P=0.016)) [%] | glucose uptake, dose-response effect ([1]; lowest concentrations tested (<100 μg/mL)) | Bioactivity ([2]; Table 1, identified peptides, hepatic glucose production) | decrease in HGP (hepatic glucose production) ([2]; basal condition) [%] | decrease of the HGP (hepatic glucose production) ([2]; insulin condition: peptide incubated with insulin at 0.1 nm, compared to insulin at 0.1 nm) [%]
IPVE: synthetic peptide of amino acid sequence IPVE, identified from salmon protein hydrolysate; increases glucose uptake | increase the bioactivity | increase the bioactivity | Increases glucose uptake | dose-dependent | no effect on the glucose uptake | 17 | no effect on the glucose uptake | – | – | –
VAPEEHPTL | – | – | – | – | – | – | – | Decreases hepatic glucose production | 20 | 18
